Here are results for 15 molecules from US20120121574A1, “ANTIMICROBIAL, ANTIVIRAL, ANTICANCER AND IMMUNOMODULATORY PEPTIDES AND USES THEREFORE” (priority 2010, published 2012).

Where a SMILES comes first, the peptide text is derived from it. Where no end group is shown, it is not given here. Bounds are passed on as bounds.

For data set [1], the system named is C. albicans SC5314 strain. To be noted: for EC50: SC5314, 6 h; for EC50asd/EC50N10K: Table IX. How it is done: In vitro activity of N10K against C. albicans SC5314 strain. The candidacidal activity of N10K peptide against C. albicans was assessed by a conventional colony forming unit (CFU) assay as previously described (Polonelli et al., 2003; Manfredi et al., 2005). Briefly, cells of C. albicans SC5314 were incubated at 37° C. for 6 hours (hr) in the presence of N10K at the concentration indicated of 20, 12.5 or 6.25 microgram/ml, or in distilled water as control (C). After incubation, cell suspensions were plated on Sabouraud dextrose agar and incubated at 30° C. for 48 hours when CFU were counted (** P<0.01 for N10K treated versus untreated cells, by t test). […]
The alanine-substituted derivatives (asd), defined according to the position held by the alanine-substituted aminoacid, were tested against C. albicans by a conventional colony forming unit (CFU) as previously described (Polonelli et al., 2003). Briefly, cells of C. albicans SC5314 were incubated at 37° C. for 6 hours in the presence of N10K or N10K asd at different scalar concentrations or distilled water as control. After incubation, cell suspensions were plated on Sabouraud dextrose agar and incubated at 30° C. for 48 hours when CFU were counted. Based on several independent replications, the EC50 value of each peptide was calculated by nonlinear regression analysis using Graph Pad Prism 4.01 software, San Diego, Calif., USA. […]
In vitro microbicidal activity of N10K derivative with 2 amino acid substitutions, or 80% sequence identity with native N10K, namely peptide Seq Id. No. 25 was tested against Candida albicans SC5314 as determined by Colony Forming Unit assay.

Data set [2] deals with U937 cell line. The experiment in a line: annexine-V/propidium iodide flow cytometry on U937. To be noted: annexine-V/propidium iodide staining. In general terms: A flow cytometer gives signals particle by particle.
Data set [3] has as its system C. neoformans 6995 strain. To be noted: 6995 strain, 6 h.
In data set [4] the test system is peritoneal murine macrophages (PM). As to the kind of experiment: in vitro immunomodulatory activity on murine peritoneal macrophages (PM). It counts as cell-based, mouse. To be noted: mouse peritoneal macrophages, FIG. 73. How it is done:
In vitro immunomodulatory activity of MoA VHCDR3 on murine immune cells. FIGS. 47-51 are graphs showing TNF-α and IL-6 production by PM and PMN stimulated with MoA CDRs and mouse MoA VHCDR3 uptake by different cell populations. Cells were cultured in the presence or absence (NS) of human and/or mouse CDRs, lipopolisaccharide (LPS), or negative control peptide (NC) (all 10 micrograms/ml) for 18 hr. Both PM and PMN cell populations were 5×10^6/ml. After incubation, TNF-α and IL-6 levels were evaluated in culture supernatants by specific ELISA assays (* P<0.05 treated vs untreated cells, n=7). In FIG. 51, dendritic cells (DC), PM, PMN, and T cells (all 1×10^6/ml) were incubated for 1 hr in the presence or absence (NS) of biotinylated (b)-MoA VHCDR3 or b-NC (both 10 micrograms/ml). After incubation, permeabilized cells were reacted with FITC-labelled mAb to biotin (b) and analyzed by FACScan flow cytometry. Data are reported as the percentage of positive cells *, P<0.05 (b-VHCDR3 treated vs untreated cells, n=5). Error bars, s.e.m. FIGS. 52A and B show graphs and colored cell staining micrograph of kinetic of VHCDR3 uptake by PM. PM (1×10^6/ml) were incubated for different times with b-VHCDR3 or b-NC (all 10 micrograms/ml). After incubation, permeabilized cells were reacted with FITC-labelled mAb to biotin and analyzed by FACScan flow cytometry. Data are reported as the mean fluorescence intensity (MFI) and percentage of positive cells (FIG. 52A) (* P<0.05 b-VHCDR3-treated vs untreated cells, n=7). Error bars, s.e.m. In selected experiments, cells were incubated for 1 hr as above described, reacted with FITC-labelled mAb to biotin in the presence of Evans' Blue as a counter stain, and subsequently examined under fluorescent light microscopy (FIG. 52B). Note the green fluorescence of b-VHCDR3 treated cells. Original magnification 20×. In FIGS. 53 and 54 is shown the phospho-Akt activation and TNF-α production in PM stimulated with MoA VHCDR3. PM (3×10^6/ml) were stimulated for 1 hr in the presence or absence (NS) of MoA VHCDR3, LPS, an irrelevant control peptide (NC) or a scrambled peptide (SP) (all 10 micrograms/ml). After incubation, cell lysates were subjected to Western blotting. Membranes were incubated with Abs to pAkt and Akt; pAkt was normalized against Akt (FIG. 53)*, P<0.05 (treated vs untreated cells, n=5). […] PM (5×10^6/ml) were stimulated for 18 hr as above described. After incubation, TNF-α level was evaluated in culture supernatants by specific ELISA assays. (FIG. 54)*, P<0.05 (treated vs untreated cells, n=5). In FIGS. 55 and 56 is shown the phospho-IkBα activation and TNF-α gene expression in PM stimulated with MoA VHCDR3. PM (3×10^6/ml) were stimulated for 1 hr in the presence or absence (NS) of wortmannin (4 nM), MoA VHCDR3, LPS or NC (all 10 micrograms/ml). After incubation, cell lysates were subjected to Western blotting. Membranes were incubated with Abs to pIkBα and IkBα; pIkBα was normalized against IkBα. (FIG. 55)*, P<0.05 (treated versus untreated cells, n=5); †, P<0.05 (wortmannin-treated vs wortmannin-untreated cells, n=5). For testing the expression level of TNF-α gene, PM (1×10^6/ml) were cultured for 1, 6 and 18 hr as above described. After incubation, total RNA was isolated and analyzed for mRNA expression with RT-PCR (FIG. 56). Transcript copy numbers were determined by qPCR using cDNA as a template. Copy numbers were normalized against the copy number of the GADPH gene (B). […]

Data set [5] concerns C. albicans AIDS68 strain. As to the kind of experiment: murine model of vaginal candidiasis, fluconazole-resistant strain. To be noted: peptide 25 micrograms intravaginally 1, 24 and 48 hours after challenge. It counts as in vivo, mice. How it is done: (§1) In vivo activity of N10K against vaginal candidiasis caused in mice by the fluconazole-resistant C. albicans AIDS68 strain. The anticandidal therapeutic activity of N10K was evaluated in a murine model of vaginal candidiasis. Groups of 5 mice were injected subcutaneously with 0.02 mg of estradiol benzoate in 100 μl of saline solution, […] and weekly thereafter. Then, mice given intravaginally 10^6 cells of the fluconazole-resistant C. albicans strain AIDS68 in 20 μl of saline solution on day 0 and were sampled for intravaginal CFU. N10K, 25 micrograms, was intravaginally administered in comparison to an irrelevant peptide (SP) as control, 1, 24 and 48 hours after the infectious challenge and sampled for intravaginal CFU at days 1, 2, 5, 7, 14, 21, and 28. The statistical significance was assessed by two-tailed Student's t test. On days 1, 2, 5, 7, 14, and 21, the differences in the CFU vaginal counts between N10K treated, untreated, SP treated and fluconazole treated animals were statistically significant (P<0.05) (Table VI).
as §1, with “T11F” for “N10K”, “T11F,” for “N10K,”, “VIII).” for “VI).”

On to “NQVSATCSVK [L5A, L8S N10K, N Q V S A T C S V K]”, for which it took 43200 nM to reach a half-maximal effect in data set [1] (EC50). The Activity result in data set [1] (Table III, in vitro, Fungus) is “cidal”.

Consider “NQVSLTCAVK [asd L8A N10K, N Q V S L T C A V K]”, for which, in data set [1], the concentration for a half-maximal effect (EC50) (as a rule, the concentration needed to bring the measured effect to its halfway point) is 744 nM and the EC50asd/EC50N10K came out at 0.74.

In data set [1], “AQVSLTCLVK [asd N1A N10K, A Q V S L T C L V K]” had a concentration giving a half-maximal response (EC50) of 587 nM and an EC50asd/EC50N10K of 0.58.

As to “N Q V S L T C L V A (NQVSLTCLVA) [asd K10A]”, the “percentual inhibition of C. albicans growth” value in data set [1] (at the concentration of 250 micrograms/ml) is recorded as “* EC50 was not determined, asd K10A showed a percentual inhibition of C. albicans growth equal to 69.04 at the concentration of 250 micrograms/ml”.

As for “TCRVDHRGLTF [Peptide T11F, T C R V D H R G L T F]”, the EC50 was determined as 1600 nM in data set [1] and 2690 nM in data set [3]. Also, in data set [2], the “induction of apoptotic/necrotic effects” value is “exclude the induction of apoptotic/necrotic effects”.

With “NQASLTCLVK [asd V3A N10K, N Q A S L T C L V K]”, in data set [1], the half-maximal effective concentration (EC50) stood at 5930 nM and the EC50asd/EC50N10K is reported as 5.91.

For the molecule “G Q A G N L W F A Y (GQAGNLWFAY) [Peptide A3]”, the “TNF-α-inducing activity compared with VHCDR3” value in data set [4] is “either unchanged or slightly reduced”.

In the case of `OC(Cn1cncn1)(Cn1cncn1)c1ccc(F)cc1F` [fluconazole], the CFU vaginal counts is reported as greater than 100 in data set [5] (Day 0); greater than 100 in data set [5] (Day 1); 93 ± 4.3 in data set [5] (Day 2); 61 ± 2.5 in data set [5] (Day 5); 44 ± 2.9 in data set [5] (Day 7); 18.7 ± 3.8 in data set [5] (Day 14). Also, the CFU vaginal counts in data set [5] (Day 21) was 11.7 ± 0.7; in data set [5] (Day 28) it was 0.

Consider “G Q Y G A L W F A Y (GQYGALWFAY) [Peptide A5]”, for which the “TNF-α-inducing activity compared with VHCDR3” value in data set [4] is “either unchanged or slightly reduced”.

In data set [1], “NQVSLACLVK [asd T6A N10K, N Q V S L A C L V K]” came in with an EC50 of 4880 nM and an EC50asd/EC50N10K of 4.86.

In data set [1], “NQVALTCLVK [asd S4A N10K, N Q V A L T C L V K]” yielded an EC50 of 2390 nM and an EC50asd/EC50N10K of 2.38.

As for “NQVSLTCLAK [asd V9A N10K, N Q V S L T C L A K]”, in data set [1], the 50% effective concentration (EC50) was determined as 1780 nM and the EC50asd/EC50N10K is listed as 1.77.

In data set [1], “NQVSLTALVK [asd C7A N10K, N Q V S L T A L V K]” yielded an EC50 of 54900 nM and an EC50asd/EC50N10K of 54.71.

Regarding “NQVSATCLVK [asd L5A N10K, N Q V S A T C L V K]”, in data set [1], the 50% effective concentration (EC50) was found to be 885 nM and the EC50asd/EC50N10K was found to be 0.88.

`CC(C)C[C@H](NC(=O)[C@H](C)NC(=O)[C@H](CCC(=O)O)NC(=O)[C@@H](N)Cc1c[nH]cn1)C(=O)O` [Peptide H4L, H E A L] (H-HEAL-OH): in data set [2], the “induction of apoptotic/necrotic effects” value is reported as “exclude the induction of apoptotic/necrotic effects”.
